From US20130045991A1, “NEUROPROTECTIVE MODULATION OF NMDA RECEPTOR SUBTYPE ACTIVITIES” (THE UNIVERSITY OF BRITISH COLUMBIA, priority 2005, published 2013)

Key:
[1] = biological target: T1, extrasynaptic NMDA receptors (Rattus norvegicus, UniProt Q00960); experiment: NMDA-induced currents mediated by extrasynaptic NMDA receptors; format: cell-based; details: NMDA 200 μM after MK-801/bicuculline block of synaptic receptors; Ro 25-6981 0.5 μM
T1 construct: both NR2A- and NR2B-containing receptor subtypes are expressed in these neurons; endogenous in cells; host or cells: primary cortical neurons from E18 Sprague-Dawley rat embryos, 11-14 DIV
T1 sequence (Q00960 27-1482, other chains not shown): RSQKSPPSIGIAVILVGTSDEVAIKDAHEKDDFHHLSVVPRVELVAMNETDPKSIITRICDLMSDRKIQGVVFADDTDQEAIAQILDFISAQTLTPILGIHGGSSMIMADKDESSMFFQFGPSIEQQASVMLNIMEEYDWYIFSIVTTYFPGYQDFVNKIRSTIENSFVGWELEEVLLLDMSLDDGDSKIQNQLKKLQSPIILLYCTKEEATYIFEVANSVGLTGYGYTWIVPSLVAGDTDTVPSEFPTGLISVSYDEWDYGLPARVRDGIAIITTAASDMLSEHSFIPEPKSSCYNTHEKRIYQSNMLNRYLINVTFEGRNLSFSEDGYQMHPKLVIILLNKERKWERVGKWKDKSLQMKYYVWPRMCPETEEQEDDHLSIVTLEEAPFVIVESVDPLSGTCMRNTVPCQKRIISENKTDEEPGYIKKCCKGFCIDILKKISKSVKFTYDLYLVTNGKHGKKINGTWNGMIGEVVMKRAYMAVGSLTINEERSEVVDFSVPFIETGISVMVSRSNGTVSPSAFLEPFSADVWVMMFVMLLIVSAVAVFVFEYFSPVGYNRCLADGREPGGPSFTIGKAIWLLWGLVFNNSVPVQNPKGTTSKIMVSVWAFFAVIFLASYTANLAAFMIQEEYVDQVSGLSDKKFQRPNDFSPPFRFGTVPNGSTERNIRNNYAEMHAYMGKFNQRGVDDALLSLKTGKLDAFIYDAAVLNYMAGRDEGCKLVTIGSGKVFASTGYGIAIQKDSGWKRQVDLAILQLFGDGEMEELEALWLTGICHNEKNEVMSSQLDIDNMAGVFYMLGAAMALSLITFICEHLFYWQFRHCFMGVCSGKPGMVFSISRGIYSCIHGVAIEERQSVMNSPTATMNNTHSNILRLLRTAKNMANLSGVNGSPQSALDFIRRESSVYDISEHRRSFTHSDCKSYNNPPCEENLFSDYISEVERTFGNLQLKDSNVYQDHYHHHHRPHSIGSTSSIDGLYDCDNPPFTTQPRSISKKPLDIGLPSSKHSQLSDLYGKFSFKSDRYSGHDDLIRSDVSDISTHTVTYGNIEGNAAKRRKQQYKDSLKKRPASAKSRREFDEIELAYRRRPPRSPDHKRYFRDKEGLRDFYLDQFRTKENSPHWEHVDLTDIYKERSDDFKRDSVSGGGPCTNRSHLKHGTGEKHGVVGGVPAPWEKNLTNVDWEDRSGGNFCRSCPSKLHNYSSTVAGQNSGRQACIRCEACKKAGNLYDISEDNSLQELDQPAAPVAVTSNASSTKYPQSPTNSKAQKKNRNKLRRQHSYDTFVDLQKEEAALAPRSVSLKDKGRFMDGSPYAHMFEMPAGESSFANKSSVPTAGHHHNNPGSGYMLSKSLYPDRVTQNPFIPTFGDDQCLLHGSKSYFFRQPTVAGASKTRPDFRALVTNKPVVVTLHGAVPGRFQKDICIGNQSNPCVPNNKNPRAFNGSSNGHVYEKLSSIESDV
Description: (§1) In contrast to the predominant expression of NR2A-containing receptors at synapses, NR2B-containing receptors are thought to be the predominant NMDA receptor expressed at extrasynaptic sites in mature neurons (Massy et al., 2004; Tovar et al., 2002). […] The selective blockade of synaptic NMDA receptors was achieved by co-application of bicuculline (50 μM) and MK-801 (10 μM) for 10 min. Bicuculline enhances synaptic release of glutamate and thereby selectively activates synaptic NMDA receptors (Hardingham et al., 2002). MK-801, as an irreversible blocker of open NMDA receptor channels (Tovar et al., 2002; Huettner et al., 1988), can only block the bicuculline-activated synaptic NMDA receptors, and cannot block extrasynaptic channels that are not activated during bicuculline application. […] Little recovery was observed one hour following wash-out of the drugs. The currents gated through extrasynaptic NMDA receptors were then induced by application of NMDA (200 μM) via a fast perfusion system after washing out bicuculline and MK-801. […] On average, about 26.6±2.3% (n=5) of total currents gated by extrasynaptic NMDA receptors were mediated by NR2A-containing receptors (FIG. 4Ad).
(§2) Recording of NMDA-induced currents mediated by extrasynaptic NMDA Receptors: Extrasynaptic NMDA receptors were isolated by a specific blockade of synaptic NMDA receptors with NMDA receptor open channel blocker MK-801 as described above. The coverslip with the treated cortical neurons was transferred to a recording chamber for whole-cell patch-clamp recording. Extrasynaptic NMDA receptors in voltage-clamped cortical neurons were activated by NMDA (200 μM) in Mg2+-free ECS using a fast perfusion system (Warner Instruments).

[2] = tested on: Akt (phospho-Ser473); experiment: Western blotting of Akt phosphorylation after NMDA treatment; format: cell-based, rat; details: NMDA-treated neurons, western blot
Description: Twelve hours after treatments, proteins were extracted from neurons using a lysis buffer composed of 150 mM NaCl, 50 mM Tris (pH 7.4), 0.1% SDS, 1% NP-40, 0.5% sodium deoxycholate, 1 mM EDTA, 1 mM Na3VO4, 10 μg/ml each of leupeptin and aprotinin, and 1 mM phenylmethylsulfonyl fluoride. To determine the state of Akt phosphorylation, the samples were separated on 10% SDS-PAGE gels, transferred to PVDF membrane and immunoblotted with anti-phosphoSer473-Akt antibody (Cell Signaling). The same membrane was stripped and reprobed with anti-Akt antibody (Cell Signaling). To determine the activity of caspase-3, the samples were separated on 15% SDS-PAGE gels and transferred to PVDF membranes, which were then sequentially probed with antibodies against cleaved caspase-3 (Asp175, Cell Signaling) and β-tubulin (Sigma).

[3] = biological target: T2, extrasynaptic NMDA receptors (Rattus norvegicus, UniProt Q00959); experiment: NMDA-induced currents mediated by extrasynaptic NMDA receptors; format: cell-based; details: in presence of Ro 25-6981; NVP-AAM077 0.4 μM
T2 construct: both NR2A- and NR2B-containing receptor subtypes are expressed in these neurons; endogenous in cells; host or cells: primary cortical neurons from E18 Sprague-Dawley rat embryos, 11-14 DIV
T2 sequence (Q00959 23-1464, other chains not shown): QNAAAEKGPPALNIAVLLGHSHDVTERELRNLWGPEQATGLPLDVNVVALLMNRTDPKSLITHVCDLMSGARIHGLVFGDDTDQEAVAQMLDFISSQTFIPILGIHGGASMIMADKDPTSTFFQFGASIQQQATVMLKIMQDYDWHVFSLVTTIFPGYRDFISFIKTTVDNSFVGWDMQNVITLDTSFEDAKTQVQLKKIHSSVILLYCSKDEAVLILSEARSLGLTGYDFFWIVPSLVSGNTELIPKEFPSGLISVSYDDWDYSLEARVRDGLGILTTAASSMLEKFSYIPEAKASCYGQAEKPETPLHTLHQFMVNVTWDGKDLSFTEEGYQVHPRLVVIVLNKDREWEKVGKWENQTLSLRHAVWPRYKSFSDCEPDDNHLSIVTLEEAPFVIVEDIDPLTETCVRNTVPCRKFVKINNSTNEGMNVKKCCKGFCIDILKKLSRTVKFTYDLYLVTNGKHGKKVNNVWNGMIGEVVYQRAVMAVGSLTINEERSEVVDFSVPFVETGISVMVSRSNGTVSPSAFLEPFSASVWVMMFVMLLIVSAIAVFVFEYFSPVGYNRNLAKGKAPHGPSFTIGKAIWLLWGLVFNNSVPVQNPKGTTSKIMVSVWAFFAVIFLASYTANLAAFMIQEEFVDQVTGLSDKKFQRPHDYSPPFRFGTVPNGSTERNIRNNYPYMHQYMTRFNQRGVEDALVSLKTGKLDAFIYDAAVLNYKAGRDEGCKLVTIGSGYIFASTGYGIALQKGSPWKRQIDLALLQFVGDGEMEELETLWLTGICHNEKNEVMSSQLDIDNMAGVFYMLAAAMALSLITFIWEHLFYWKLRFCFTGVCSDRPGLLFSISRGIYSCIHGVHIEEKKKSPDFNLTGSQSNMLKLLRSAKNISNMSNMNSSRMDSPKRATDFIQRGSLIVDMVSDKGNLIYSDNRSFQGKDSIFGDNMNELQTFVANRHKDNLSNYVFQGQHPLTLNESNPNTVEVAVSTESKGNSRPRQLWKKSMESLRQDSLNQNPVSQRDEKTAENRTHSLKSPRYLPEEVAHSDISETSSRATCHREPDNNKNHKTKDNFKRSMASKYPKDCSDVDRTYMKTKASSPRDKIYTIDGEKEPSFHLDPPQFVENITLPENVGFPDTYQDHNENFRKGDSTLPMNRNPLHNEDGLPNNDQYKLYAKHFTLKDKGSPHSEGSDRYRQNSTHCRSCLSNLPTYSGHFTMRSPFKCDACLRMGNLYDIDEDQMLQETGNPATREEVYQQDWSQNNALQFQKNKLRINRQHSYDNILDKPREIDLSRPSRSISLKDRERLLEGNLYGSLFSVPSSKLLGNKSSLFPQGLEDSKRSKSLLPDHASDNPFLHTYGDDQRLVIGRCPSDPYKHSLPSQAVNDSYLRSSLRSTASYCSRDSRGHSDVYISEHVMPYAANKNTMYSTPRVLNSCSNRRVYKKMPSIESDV
Description: as §1, §2

[4] = tested on: extrasynaptic NMDA receptors; experiment: as above; format: cell-based, rat; details: NMDA 200 μM; n=5
Description: as §1, §2

Row | SMILES | effect on extrasynaptic NMDA receptor-mediated currents [1] | effect on NMDA-induced reduction in Akt kinase activity (S473 dephosphorylation) [2] | effect on residual, NR2B antagonist-resistant extrasynaptic current [3] | share of total extrasynaptic NMDA receptor currents mediated by NR2A-containing receptors (Ro 25-6981-resistant, NVP-AAM077-blocked) [4]
1 | C[C@@H](CN1CCC(Cc2ccccc2)CC1)[C@@H](O)c1ccc(O)cc1 (relative stereo) [Ro 25-6981, [R-(R*,S*)]-α-(4-Hydroxyphenyl)-β-methyl-4-(phenylmethyl)-1-piperidinepropanol] | largely reduced | – | – | –
2 | C[C@H](NC(c1cccc2[nH]c(=O)c(=O)[nH]c12)P(=O)(O)O)c1ccc(Br)cc1 (stereo partly shown) [NVP-AAM077] | – | slightly increased the NMDA-induced reduction in Akt activity | virtually completely blocked | about 26.6±2.3%
